According to patent US20150238483A1, “Traitement des neuronopathies motrices” (CENTRE NATIONAL DE LA RECHERCHE SCIENTIFIQUE- CNRS, priority 2012, published 2015):
Structures can show the parent of a compound that is named as a salt. Where two headings read alike, the source gives them in different places.

Key:
[1] = system: immortalized SMA fibroblasts; assay: Distribution of the SMN protein to Cajal bodies (CBs) in immortalized SMA fibroblasts, immunolabeling, cells counted; type: cell-based, human; conditions: for induction factor of cells with SMN protein in CBs (DMSO = 1): 24 hours of treatment at 2 micrograms/ml, immortalized SMA fibroblasts; for Maximum induction: at 2 μg/ml, DMSO = 1; for Maximum induction / Dilution at EC50: immortalized type I line; for Dilution at EC50: dilution relative to 2 μg/ml
Experimental: This immortalization is described in the publication Lefebvre S, Burlet P, Viollet L, Bertrandy S, Huber C, Belser C and Munnich A. A novel association of the SMN protein with major non-ribosomal nucleolar proteins and its implication in spinal muscular atrophy. Hum Mol Genet (2002) 11 (9): 1017-1027.
The blockers of the invention are commercially available (for example from Sigma-Aldrich) and are sold in 96-well plates, at 2 milligrams per molecule per well to be dissolved in 1 ml of DMSO.
In order to determine whether the calcium channel blockers exerted a positive effect, the inventors counted the cells which had the SMN protein located in the CBs out of 100 cells randomly selected for each experiment.
This experiment was repeated three times.
A value of induction by a factor equal to 1 was arbitrarily assigned to DMSO.
In order to evaluate the relationship between the concentration (dose) and the effect (response) on the CBs of the immortalized SMA cells, the inventors constructed a dose-response curve for each of the molecules.

immortalized SMA cells = assay: Co-immunolabeling of coilin and TMG cap: snRNPs at the level of CBs in immortalized SMA cells; type: cell-based, human; conditions: 24 hours of treatment; chi-2, 0.001<p<0.01; n=300 cells
Experimental: Co-immunolabeling experiments similar to the previous ones were carried out on the immortalized SMA cells using two commercial antibodies, one specific for the coilin protein (CBs marker) and the other for the trimethylguanosine (TMG) cap of the small nuclear RNAs of snRNPs.
These tests show an increase in the SMN protein and in the snRNPs in Cajal bodies in the immortalized SMA line from the severe form of the disease (type I), induced by the calcium channel blockers of the invention. The mean value for the snRNPs is calculated from the three experiments (n=300 cells).

[2] = humans, cited from earlier work; for maximum plasma level: oral, 10 mg per day
[3] = system: amyotrophic lateral sclerosis; conditions: ALS patients; cited from earlier work

Row | SMILES | induction factor of cells with SMN protein in CBs (DMSO = 1) [1] | Maximum induction [1] | Dilution at EC50 [1] | other results
1 | NCC1(CC(=O)O)CCCCC1 [Gabapentin, 2-[1-(aminomethyl)cyclohexyl]acetic acid] | approximately 3.3 | 4.4 ± 1.0 | 1/55 | EC50 ([1]; Homo sapiens, Fibroblast): 210 ± 38 nM
2 | Fc1ccc(C(c2ccc(F)cc2)N2CCN(C/C=C/c3ccccc3)CC2)cc1 [Flunarizine dihydrochloride, flunarizine dihydrochloride] | approximately 4.8 | 4.8 ± 1.5 | 1/53 | snRNPs at the level of the CBs (immortalized SMA cells): significant increase; maximum plasma level [2]: approximately 81±16 nanograms/ml; maximum plasma level ([2]; converted from ng/ml): approximately 170±34 nM; elimination half-life [2]: long; induction factor of SMN protein distribution to CBs (DMSO = 1) ([1]; compounds diluted to 1/1000 compared with examples 1 and 2, FIG. 1): 1.2
3 | CCCCc1oc2ccccc2c1C(=O)c1cc(I)c(OCCN(CC)CC)c(I)c1 [Amiodarone hydrochloride, (2-butyl-3-benzofuranyl)[4-[2-(diethylamino)ethoxy]-3,5-diiodophenyl]methanone hydrochloride] | approximately 2.8 | 2.8 ± 1.0 | – | –
4 | Nc1nc2ccc(OC(F)(F)F)cc2s1 [Riluzole] | – | – | – | improvement of patient prognosis [3]: 30%
5 | CC(C)C[C@H](CN)CC(=O)O [pregabalin] | 1.7 | – | – | –
